In ChEMBL document CHEMBL4417631, “Oral peptide inhibitors of interleukin-23 receptor and their use to treat inflammatory bowel diseases” (2017) one finds IC50 data, which are given here for 17 compounds.

Where a SMILES comes first, the peptide text is derived from it. [ ]: non-standard residue; d: D form. Phe(3,4-(OMe)2) = COc1ccc(C[C@H](N)C(=O)O)cc1OC; Phe(4-CONH2) = NC(=O)c1ccc(C[C@H](N)C(=O)O)cc1; 2Nal = N[C@@H](Cc1ccc2ccccc2c1)C(=O)O; AEF = NCCOc1ccc(C[C@H](N)C(=O)O)cc1; Pen = CC(C)(S)[C@H](N)C(=O)O; αMeV = CC(C)[C@](C)(N)C(=O)O; Aib = CC(C)(N)C(=O)O Where only a bound is given, the exact number is not on record here.

The first experiment addresses T1, Interleukin-23 receptor (Homo sapiens, UniProt Q5VWK5).
T1 sequence (Q5VWK5 whole entry): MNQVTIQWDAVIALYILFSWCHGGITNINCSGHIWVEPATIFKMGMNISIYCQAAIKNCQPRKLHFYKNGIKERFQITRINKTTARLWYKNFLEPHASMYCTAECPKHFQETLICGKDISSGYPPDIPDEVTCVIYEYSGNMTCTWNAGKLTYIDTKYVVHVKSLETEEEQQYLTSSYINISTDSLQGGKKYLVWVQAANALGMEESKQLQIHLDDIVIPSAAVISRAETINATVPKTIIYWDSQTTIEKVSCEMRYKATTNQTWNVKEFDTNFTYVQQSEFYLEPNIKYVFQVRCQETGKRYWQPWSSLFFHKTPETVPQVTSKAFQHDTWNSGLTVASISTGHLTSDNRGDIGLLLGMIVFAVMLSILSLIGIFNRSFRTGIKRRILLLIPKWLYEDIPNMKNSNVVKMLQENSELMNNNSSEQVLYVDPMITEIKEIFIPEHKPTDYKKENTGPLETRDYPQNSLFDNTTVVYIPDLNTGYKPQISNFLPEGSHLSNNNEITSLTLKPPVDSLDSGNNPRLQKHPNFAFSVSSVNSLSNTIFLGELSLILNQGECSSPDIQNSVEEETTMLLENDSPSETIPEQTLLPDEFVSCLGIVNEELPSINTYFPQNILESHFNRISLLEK
Briefly: Inhibition of interleukin-23 receptor in human DB cells assessed as reduction in IL-23-stimulated STAT3 phosphorylation incubated for 30 mins by HTRF assay. The experiment is classed as cell-based. For orientation: In TR-FRET formats the signal depends on donor and acceptor labels being close together.
A word on the IC50: it is the midpoint of a concentration-inhibition curve. Regarding `CC(=O)NCCCC[C@H](NC(=O)C(C)(C)NC(=O)[C@H](Cc1ccc2ccccc2c1)NC(=O)[C@H](Cc1ccc(OCCN)cc1)NC(=O)[C@@H](NC(=O)[C@H](CCC(N)=O)NC(=O)[C@H](Cc1c[nH]c2ccccc12)NC(=O)[C@@H](NC(=O)[C@H](CCC(N)=O)NC(=O)[C@@H](NC(=O)[C@H](CCCNC(=N)N)NC(C)=O)C(C)(C)S)[C@@H](C)O)C(C)(C)S)C(=O)N[C@@H](CC(N)=O)C(=O)N[C@@H](CC(N)=O)C(N)=O`, the IC50 is below 10 nM.

Consider `CC(=O)NCCCC[C@H](NC(=O)C(C)(C)NC(=O)[C@H](Cc1ccc2ccccc2c1)NC(=O)[C@H](Cc1ccc(OCCN)cc1)NC(=O)[C@@H](NC(=O)[C@H](CCC(N)=O)NC(=O)[C@H](Cc1c[nH]c2ccccc12)NC(=O)[C@@H](NC(=O)[C@H](CCC(N)=O)NC(=O)[C@@H](NC(=O)[C@H](CCC(=O)O)NC(C)=O)C(C)(C)S)[C@@H](C)O)C(C)(C)S)C(=O)N[C@@H](CC(N)=O)C(=O)N[C@@H](CC(N)=O)C(N)=O` (Ac-E[Pen]QTWQ[Pen][AEF][2Nal][Aib]K(Ac)NN-NH2), for which the IC50 is below 10 nM.

Consider `CC(=O)N[C@@H](CS)C(=O)N[C@@H](CN)C(=O)N[C@H](C(=O)N[C@@H](Cc1c[nH]c2ccccc12)C(=O)N[C@@H](CCC(N)=O)C(=O)N[C@@H](CS)C(=O)N[C@@H](Cc1ccc(O)cc1)C(=O)N[C@@H](Cc1c[nH]c2ccccc12)C(=O)N[C@@H](CCCNC(=N)N)C(=O)N[C@H](C(=O)N[C@@H](Cc1ccccc1)C(=O)NCC(=O)NCCOCC(=O)N[C@H](CCCCN)C(N)=O)C(C)C)[C@@H](C)O`, for which the IC50 was 100 nM.

With `CC(=O)NCCCC[C@H](NC(=O)C(C)(C)NC(=O)[C@H](Cc1ccc2ccccc2c1)NC(=O)[C@H](Cc1ccc(OCCN)cc1)NC(=O)[C@@H](NC(=O)[C@H](CCC(N)=O)NC(=O)[C@H](Cc1c[nH]c2ccccc12)NC(=O)[C@@H](NC(=O)[C@H](CCC(N)=O)NC(=O)[C@@H](NC(=O)[C@@H](Cc1ccccc1)NC(C)=O)C(C)(C)S)[C@@H](C)O)C(C)(C)S)C(=O)N[C@@H](CC(N)=O)C(=O)N[C@@H](CC(N)=O)C(N)=O`, the IC50 is below 10 nM.

As to `CC(=O)NCCCC[C@H](NC(=O)C(C)(C)NC(=O)[C@H](Cc1ccc2ccccc2c1)NC(=O)[C@H](Cc1ccc(OCCN)cc1)NC(=O)[C@@H](NC(=O)[C@H](CCC(N)=O)NC(=O)[C@H](Cc1c[nH]c2ccccc12)NC(=O)[C@@H](NC(=O)[C@H](CCC(N)=O)NC(=O)[C@@H](NC(C)=O)C(C)(C)S)[C@@H](C)O)C(C)(C)S)C(=O)N[C@@H](CC(N)=O)C(=O)N[C@@H](C)C(N)=O`, the IC50 was below 10 nM.

Consider `CC(=O)NCCCC[C@H](NC(=O)C(C)(C)NC(=O)[C@H](Cc1ccc2ccccc2c1)NC(=O)[C@H](Cc1ccc(OCCN)cc1)NC(=O)[C@@H](NC(=O)[C@H](CCC(N)=O)NC(=O)[C@H](Cc1c[nH]c2ccccc12)NC(=O)[C@@H](NC(=O)[C@H](CCC(N)=O)NC(=O)[C@@H](NC(=O)[C@@H](NC(C)=O)[C@@H](C)O)C(C)(C)S)[C@@H](C)O)C(C)(C)S)C(=O)N[C@@H](CC(N)=O)C(=O)N[C@@H](CC(N)=O)C(N)=O` (Ac-T[Pen]QTWQ[Pen][AEF][2Nal][Aib]K(Ac)NN-NH2), for which the IC50 was below 10 nM.

For `CC(=O)NCCOc1ccc(C[C@H](NC(=O)[C@@H](NC(=O)[C@H](CCC(N)=O)NC(=O)[C@H](Cc2c[nH]c3ccccc23)NC(=O)[C@@H](NC(=O)[C@H](CCC(N)=O)NC(=O)[C@@H](NC(C)=O)C(C)(C)S)[C@@H](C)O)C(C)(C)S)C(=O)N[C@@H](Cc2ccc3ccccc3c2)C(=O)N[C@](C)(C(=O)N[C@@H](CCCCN)C(=O)N[C@@H](CC(N)=O)C(=O)N[C@@H](CC(N)=O)C(N)=O)C(C)C)cc1`, the IC50 is below 10 nM.

As to `CC(=O)NCCCC[C@H](NC(=O)C(C)(C)NC(=O)[C@H](Cc1ccc2ccccc2c1)NC(=O)[C@H](Cc1ccc(OCCN)cc1)NC(=O)[C@@H](NC(=O)[C@H](CCC(N)=O)NC(=O)[C@H](Cc1c[nH]c2ccccc12)NC(=O)[C@@H](NC(=O)[C@H](CCC(N)=O)NC(=O)[C@@H](NC(=O)[C@@H](CC(=O)O)NC(C)=O)C(C)(C)S)[C@@H](C)O)C(C)(C)S)C(=O)N[C@@H](CC(N)=O)C(=O)N[C@@H](CC(N)=O)C(N)=O`, the half-inhibitory concentration (IC50) is below 10 nM.

Take `COc1ccc(C[C@H](NC(=O)[C@H](Cc2ccc(C(N)=O)cc2)NC(=O)[C@@H](NC(=O)[C@H](CCC(N)=O)NC(=O)[C@H](Cc2c[nH]c3ccccc23)NC(=O)[C@@H](NC(=O)[C@H](CCC(N)=O)NC(=O)[C@@H](NC(C)=O)C(C)(C)S)[C@@H](C)O)C(C)(C)S)C(=O)N[C@](C)(C(=O)N[C@@H](CCCCNC(C)=O)C(=O)N[C@@H](CC(N)=O)C(=O)N[C@@H](CC(N)=O)C(N)=O)C(C)C)cc1OC` (Ac-[Pen]QTWQ[Pen][Phe(4-CONH2)][Phe(3,4-(OMe)2)][αMeV]K(Ac)NN-NH2): the IC50 was in the range of 10 to 25 nM.

In the case of `CC(=O)NCCCC[C@H](NC(=O)C(C)(C)NC(=O)[C@H](Cc1ccc2ccccc2c1)NC(=O)[C@H](Cc1ccc(OCCN)cc1)NC(=O)[C@@H](NC(=O)[C@H](CCC(N)=O)NC(=O)[C@H](Cc1c[nH]c2ccccc12)NC(=O)[C@@H](NC(=O)[C@H](CCC(N)=O)NC(=O)[C@@H](NC(=O)[C@H](CC(C)C)NC(C)=O)C(C)(C)S)[C@@H](C)O)C(C)(C)S)C(=O)N[C@@H](CC(N)=O)C(=O)N[C@@H](CC(N)=O)C(N)=O` (Ac-L[Pen]QTWQ[Pen][AEF][2Nal][Aib]K(Ac)NN-NH2), the IC50 was below 10 nM.

The target of the next experiment is T1, Interleukin-23 receptor. Nature of the experiment: Inhibition of interleukin-23 binding to human interleukin-23 receptor incubated for 2 hrs by competitive binding ELISA. On the technique in general: ELISA stands for enzyme-linked immunosorbent assay.
The compound `CC(=O)N[C@@H](CS)C(=O)N[C@@H](C)C(=O)N[C@@H](CC(=O)O)C(=O)N[C@@H](Cc1c[nH]c2ccccc12)C(=O)N[C@H](C(=O)N[C@@H](CS)C(=O)N[C@@H](Cc1ccc(O)cc1)C(=O)N[C@@H](Cc1c[nH]c2ccccc12)C(=O)N[C@@H](CCCN)C(=O)N[C@@](C)(CC(C)C)C(=O)N[C@@H](Cc1ccccc1)C(=O)NCC(=O)NCCOCC(=O)N[C@H](CCCCN)C(N)=O)C(C)C` displayed an IC50 of 6000 nM.

In turn, `CSCC[C@H](NC(=O)[C@H](Cc1c[nH]c2ccccc12)NC(=O)[C@H](CC(=O)O)NC(=O)[C@H](C)NC(=O)[C@@H](N)CS)C(=O)N[C@@H](CS)C(=O)N[C@@H](Cc1ccc(O)cc1)C(=O)N[C@@H](Cc1c[nH]c2ccccc12)C(=O)N[C@@H](Cc1cnc[nH]1)C(=O)N[C@@H](CCC(=O)O)C(=O)N[C@@H](Cc1ccc(O)cc1)C(=O)NCC(N)=O` (H-CADWMCYWHEYG-NH2) returned an IC50 of 500 to 1000 nM.

`CC(=O)N[C@@H](CS)C(=O)N[C@@H](CCC(N)=O)C(=O)N[C@H](C(=O)N[C@@H](Cc1c[nH]c2ccccc12)C(=O)N[C@@H](CCC(=O)O)C(=O)N[C@@H](CS)C(=O)N[C@@H](Cc1ccc(O)cc1)C(=O)N[C@@H](Cc1c[nH]c2ccccc12)C(=O)N[C@@H](Cc1cnc[nH]1)C(=O)N[C@@H](CC(C)C)C(=O)N[C@@H](Cc1ccc(O)cc1)C(=O)NCC(N)=O)[C@@H](C)O` (Ac-CQTWECYWHLYG-NH2) gave a half-maximal inhibitory concentration (IC50) below 500 nM.

With `CC(C)[C@H](NC(=O)[C@H](Cc1c[nH]c2ccccc12)NC(=O)[C@H](CC(=O)O)NC(=O)[C@H](CS)NC(=O)[C@H](C)N)C(=O)N[C@@H](CS)C(=O)N[C@@H](Cc1ccc(O)cc1)C(=O)N[C@@H](Cc1c[nH]c2ccccc12)C(=O)N[C@@H](Cc1cnc[nH]1)C(=O)N[C@H](C(=O)N[C@@H](Cc1ccccc1)C(=O)NCC(N)=O)[C@@H](C)O`, the 50% inhibitory concentration (IC50) is above 1000 nM.

`CC(=O)N[C@H](CCCCNC(=O)COCC(=O)NCCCC[C@@H](NC(C)=O)C(=O)N[C@@H](CO)C(=O)N[C@@H](CS)C(=O)N[C@@H](C)C(=O)N[C@@H](CC(=O)O)C(=O)N[C@@H](Cc1c[nH]c2ccccc12)C(=O)N[C@H](C(=O)N[C@@H](CS)C(=O)N[C@@H](Cc1ccc(O)cc1)C(=O)N[C@@H](Cc1c[nH]c2ccccc12)C(=O)N[C@@H](Cc1cnc[nH]1)C(=O)N[C@H](C(=O)N[C@@H](Cc1ccccc1)C(=O)NCC(=O)O)[C@@H](C)O)C(C)C)C(=O)N[C@@H](CO)C(=O)N[C@@H](CS)C(=O)N[C@@H](C)C(=O)N[C@@H](CC(=O)O)C(=O)N[C@@H](Cc1c[nH]c2ccccc12)C(=O)N[C@H](C(=O)N[C@@H](CS)C(=O)N[C@@H](Cc1ccc(O)cc1)C(=O)N[C@@H](Cc1c[nH]c2ccccc12)C(=O)N[C@@H](Cc1cnc[nH]1)C(=O)N[C@H](C(=O)N[C@@H](Cc1ccccc1)C(=O)NCC(=O)O)[C@@H](C)O)C(C)C` gave an IC50 above 10000 nM.

Turning to `CC(=O)N[C@@H](CS)C(=O)N[C@@H](CCC(N)=O)C(=O)N[C@H](C(=O)N[C@@H](Cc1c[nH]c2ccccc12)C(=O)N[C@@H](CCC(N)=O)C(=O)N[C@@H](CS)C(=O)N[C@@H](Cc1ccc(O)cc1)C(=O)N[C@H](CC(=O)N[C@@H](CCCNC(=N)N)C(=O)N[C@H](C(=O)N[C@@H](CC(N)=O)C(=O)NCC(=O)NCCOCC(=O)N[C@H](CCCCN)C(N)=O)C(C)C)Cc1cccc2ccccc12)[C@@H](C)O`, the IC50 is above 30000 nM.

For the compound `CC(=O)N[C@@H](CS)C(=O)N[C@@H](CCC(N)=O)C(=O)N[C@H](C(=O)N[C@@H](Cc1c[nH]c2ccccc12)C(=O)N[C@@H](CCC(N)=O)C(=O)N[C@@H](CS)C(=O)N[C@@](C)(Cc1ccccc1)C(=O)N[C@@H](Cc1c[nH]c2ccccc12)C(=O)N[C@@H](CCC(C)C)C(=O)N[C@@H](CCC(=O)O)C(=O)N[C@@H](CC(N)=O)C(=O)NCC(N)=O)[C@@H](C)O`, the IC50 was 30000 nM.
